One test deals with CXF 1103. Briefly: clonogenic assay, human tumor xenografts in vitro. The format is cell-based. Particulars: CXF1103, Colon, CXF 1103, Adeno carcinoma, soft agar, read-out: IC50 (nM), colony formation. As for the experimental part:
(§1) The anticancer activity of 5-(2,4-Dihydroxy-5-isopropyl-phenyl)-4-(4-morpholin-4-ylmethyl-phenyl)-isoxazole-3-carboxylic acid ethylamide is evaluated in 30 human tumor xenografts in vitro using a clonogenic assay. In this assay, human cells derived from cancer patients are evaluated for the capacity of 5-(2,4-Dihydroxy-5-isopropyl-phenyl)-4-(4-morpholin-4-ylmethyl-phenyl)-isoxazole-3-carboxylic acid ethylamide to inhibit the formation of 3 dimensional colonies. […] The tumor xenografts which have never been cultured in cell culture plastic dishes are isolated from nude mice. Tumor cell suspensions are prepared and incubated in 24 well plates containing layers of soft agar. Under these conditions a special subpopulation of cells selectively grows to colonies. 5-(2,4-Dihydroxy-5-isopropyl-phenyl)-4-(4-morpholin-4-ylmethyl-phenyl)-isoxazole-3-carboxylic acid ethylamide was tested in 6 concentrations up to […]. The tumor test panel comprises 1 to 6 models of 10 different human tumor or cancer types, which were bladder cancer, colon, liver, non small cell lung (adeno, squamous epithelium and large cell), small cell lung, mammary, ovary, pancreatic, melanoma and pleuramesothelioma. Antitumor effects are recorded as inhibition of colony formation in relation to untreated controls. Further information on the method has been published (Burger et al., 2004; Fiebig et al., 2004; Smith et al., 2005).
(§2) The cells are continually exposed to 5-(2,4-Dihydroxy-5-isopropyl-phenyl)-4-(4-morpholin-4-ylmethyl-phenyl)-isoxazole-3-carboxylic acid ethylamide and colony formation is determined.
(In general: Xenograft models place foreign cells or tissue in a host animal.)

The next test has as its system CXF 1729. As to the kind of experiment: clonogenic assay, human tumor xenografts in vitro. Format: cell-based. The following applies: Colon, CXF 1729, Carcinoma, soft agar, read-out: IC50 (nM), colony formation. As for the experimental part:
as §1, §2

Another test has as its system CXF 1784. As to the kind of experiment: clonogenic assay, human tumor xenografts in vitro. The format is cell-based. The following applies: Colon, CXF 1784, Carcinoma, soft agar, read-out: IC50 (nM), colony formation. As for the experimental part: as §1, §2
In the next test the test system is LXFA 526. Briefly: clonogenic assay, human tumor xenografts in vitro. The format is cell-based. Particulars: Lung, non-small cell, LXFA 526, Adeno carcinoma, soft agar, read-out: IC50 (nM), colony formation. As for the experimental part: as §1, §2
The test system of a further test is LXFA 629. Briefly: clonogenic assay, human tumor xenografts in vitro. The format is cell-based. The following applies: Lung, non-small cell, LXFA 629, Adeno carcinoma, soft agar, read-out: IC50 (nM), colony formation. The procedure:
as §1, §2

Another test has as its system LXFA 983. Briefly: clonogenic assay, human tumor xenografts in vitro. Particulars: Lung, non-small cell, LXFA 983, Adeno carcinoma, soft agar, read-out: IC50 (nM), colony formation. The format is cell-based. As for the experimental part: as §1, §2
In the next test the test system is LXFE 1422. Briefly: clonogenic assay, human tumor xenografts in vitro. The format is cell-based. Particulars: Lung, non-small cell, LXFE 1422, Squamous cell carcinoma, soft agar, read-out: IC50 (nM), colony formation. As for the experimental part:
as §1, §2

For a further test, the system named is LXFS 615. As to the kind of experiment: clonogenic assay, human tumor xenografts in vitro. The following applies: Lung, small cell, LXFS 615, Small cell lung carcinoma, soft agar, read-out: IC50 (nM), colony formation. The format is cell-based. The procedure: as §1, §2
The next test relates to MAXF 1322. Briefly: clonogenic assay, human tumor xenografts in vitro. The format is cell-based. Particulars: Breast, MAXF 1322, Pap. adeno carcinoma, soft agar, read-out: IC50 (nM), colony formation. As for the experimental part: as §1, §2
For another test, the system named is MEXF 462. As to the kind of experiment: clonogenic assay, human tumor xenografts in vitro. The format is cell-based. The following applies: Melanoma, MEXF 462, Amelanotic melanoma, soft agar, read-out: IC50 (nM), colony formation. The procedure: as §1, §2
Another test deals with MEXF 535. As to the kind of experiment: clonogenic assay, human tumor xenografts in vitro. Format: cell-based. Particulars: Melanoma, MEXF 535, Amelanotic melanoma, soft agar, read-out: IC50 (nM), colony formation. As for the experimental part:
as §1, §2

The test system of the next test is MEXF 989. As to the kind of experiment: clonogenic assay, human tumor xenografts in vitro. Format: cell-based. The following applies: Melanoma, MEXF 989, Amelanotic melanoma, soft agar, read-out: IC50 (nM), colony formation. The procedure:
as §1, §2

Another test relates to OVXF 1353. As to the kind of experiment: clonogenic assay, human tumor xenografts in vitro. The format is cell-based. Particulars: Ovary, OVXF 1353, Adeno carcinoma, soft agar, read-out: IC50 (nM), colony formation. As for the experimental part:
as §1, §2

In a further test the test system is PXF 1118. As to the kind of experiment: clonogenic assay, human tumor xenografts in vitro. The format is cell-based. The following applies: Pleuramesothelioma, PXF 1118, Biphasic pleuramesothelioma, soft agar, read-out: IC50 (nM), colony formation. The procedure: as §1, §2
For the next test, the system named is CA20948 xenograft. Briefly: antitumor effect in the rat pancreatic cancer model CA20948. Particulars: for T/C (%) / ΔTumor volume (mm^3): qw; for ΔTumor volume (mm^3): mean ±SEM, *P < 0.05. The format is in vivo. The procedure: The transplantable rat pancreatic tumor CA20948 is serially passaged as cell homogenates in male syngeneic Lewis rats. The injection site is subcutaneously on the right flank. […] Tumor growth is monitored at regular intervals. The xenograft tumor sizes is measured manually with calipers and the tumor volume is estimated using the formula: (W×L^2×π/6), where width (W) and height (H) are the two largest diameters. Results are presented as mean ±SEM. Tumor data were analyzed by ANOVA with post hoc Dunnet's test for comparison of treatment versus control group. As a measure of efficacy the % T/C value is calculated at the end of the experiment according to: (Δtumor volumetreated/Δtumor volumecontrol)*100 where Δtumor volumes represent the mean tumor volume on the evaluation day minus the mean tumor volume at the start of the experiment. The antitumor effect of AUY922 is evaluated in the CA20948 xenograft model. Each group consisted of six tumor bearing animals. At the end of the study, the tumor sizes in the treatment groups are compared to those of the vehicle treated groups and the effect is expressed as % T/C.

Molecules are shown by their SMILES.

The results in this text go back to US20160045513A1, “ISOXAZOLE COMPOUND FOR THE TREATMENT OF CANCER” (Novartis AG, priority 2007, published 2016).

Broadly, the IC50 is the midpoint of a concentration-inhibition curve.

Consider `CCNC(=O)c1noc(-c2cc(C(C)C)c(O)cc2O)c1-c1ccc(CN2CCOCC2)cc1` [AUY922, 5-(2,4-Dihydroxy-5-isopropyl-phenyl)-4-(4-morpholin-4-ylmethyl-phenyl)-isoxazole-3-carboxylic acid ethylamide], for which the IC50 in the test on CXF 1103 was found to be 13 nM; in the test on CXF 1729, 467 nM; in the test on CXF 1784, 418 nM; in the test with LXFA 526 it was 5 nM; with LXFA 629, 35 nM; in the test on LXFA 983, 126 nM. The IC50 with LXFE 1422 is 48 nM; in the test on LXFS 615, 30 nM; with MAXF 1322, 29 nM; in the test with MEXF 462, 24 nM; in the test on MEXF 535, 43 nM; with MEXF 989, 2 nM. For the same compound, the IC50 came out at 26 nM in the test on OVXF 1353 and 223 nM with PXF 1118. The “T/C (%)” value amounted to 30% in the test with CA20948 xenograft (50 mg/kg, i.v.) and 21% in the test with CA20948 xenograft (75 mg/kg, i.v). Also, the “ΔTumor volume (mm^3)” value in the test with CA20948 xenograft (50 mg/kg, i.v.) is recorded as 7090 ± 2553* mm^3; in the test on CA20948 xenograft (75 mg/kg, i.v) it was 4796 ± 1354* mm^3. Also, in the test on CA20948 xenograft (once per week at 50 and 75 mg/kg), the “reduction of tumor sizes versus vehicle” value is on record as “Statistically significant reduction of tumor sizes”.
